Assay type in all cases: cell-based
In assay [1] the target is T1, wild-type Androgen Receptor (AR-wt) (Homo sapiens (Human), UniProt P10275). Briefly: LNCaP-AR-wt ANT reporter assay (antagonist mode). To be noted: for IC50: pIC50 = −Log10(IC50 in Molar), read-out: LNCaP-AR-wt ANT pIC50 (converted); for Emax: read-out: LNCaP-AR-wt ANT MAX % Inh.
For assay [2], the target named is T1, wild-type Androgen Receptor (AR-wt). As to the kind of experiment: LNCaP-AR-wt AG reporter assay (agonist mode). The conditions noted are these: for EC50: pEC50 = −Log10(EC50 in Molar), read-out: LNCaP-AR-wt AG pEC50 (converted); for Emax: read-out: LNCaP-AR-wt AG MAX % Stim.
For assay [3], the target named is T2, F876L mutant Androgen Receptor (AR-F876L) (Homo sapiens (Human), UniProt P10275, F877L). As to the kind of experiment: LNCaP-AR-F876L ANT reporter assay (antagonist mode). To be noted: for IC50: pIC50 = −Log10(IC50 in Molar), read-out: LNCaP-AR-F876L ANT pIC50 (converted); for Emax: read-out: LNCaP-AR-F876L ANT MAX % Inh. (In general: A reporter such as luciferase makes a cellular process visible.)
T2 sequence (P10275 whole entry F877L): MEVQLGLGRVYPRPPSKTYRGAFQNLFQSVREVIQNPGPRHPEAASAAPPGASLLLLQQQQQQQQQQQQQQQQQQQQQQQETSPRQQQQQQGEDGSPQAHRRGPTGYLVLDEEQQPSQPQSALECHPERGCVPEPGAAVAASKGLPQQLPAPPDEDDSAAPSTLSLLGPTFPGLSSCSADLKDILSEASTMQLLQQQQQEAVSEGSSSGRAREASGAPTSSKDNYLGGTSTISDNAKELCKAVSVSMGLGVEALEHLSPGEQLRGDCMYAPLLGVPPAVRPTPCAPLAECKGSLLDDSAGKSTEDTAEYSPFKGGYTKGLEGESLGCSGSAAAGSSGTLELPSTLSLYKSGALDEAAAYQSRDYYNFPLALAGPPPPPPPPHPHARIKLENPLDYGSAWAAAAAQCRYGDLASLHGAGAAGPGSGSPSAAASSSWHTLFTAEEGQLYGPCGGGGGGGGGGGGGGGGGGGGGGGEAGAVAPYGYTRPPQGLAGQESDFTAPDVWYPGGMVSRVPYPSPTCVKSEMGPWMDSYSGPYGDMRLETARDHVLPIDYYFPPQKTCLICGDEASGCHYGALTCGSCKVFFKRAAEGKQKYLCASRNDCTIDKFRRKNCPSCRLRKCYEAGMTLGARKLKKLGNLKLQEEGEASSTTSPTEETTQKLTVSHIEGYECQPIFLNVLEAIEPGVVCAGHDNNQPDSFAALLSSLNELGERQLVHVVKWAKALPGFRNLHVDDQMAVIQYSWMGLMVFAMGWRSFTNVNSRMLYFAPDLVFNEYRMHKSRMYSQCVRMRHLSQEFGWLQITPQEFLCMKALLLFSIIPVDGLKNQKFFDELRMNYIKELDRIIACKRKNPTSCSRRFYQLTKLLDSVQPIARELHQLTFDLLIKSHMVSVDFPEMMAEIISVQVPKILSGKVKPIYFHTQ

The target in assay [4] is T2, F876L mutant Androgen Receptor (AR-F876L). Briefly: LNCaP-AR-F876L AG reporter assay (agonist mode). To be noted: for EC50: pEC50 = −Log10(EC50 in Molar), read-out: LNCaP-AR-F876L AG pEC50 (converted); for Emax: read-out: LNCaP-AR-F876L AG MAX % Stim.
The mark [5] stands for this setting: maximum % inhibition of R1881 control response over the tested concentration range.
Where [6] appears, read: maximum % stimulation (agonist response) over the tested concentration range.
[7] abbreviates: antagonist mode, maximum % inhibition of R1881 control response over tested concentration range.
[8] abbreviates: agonist mode, maximum % stimulation over tested concentration range.

T1 sequence (P10275 whole entry): as the sequence (P10275 whole entry F877L) above, with L877F counted along it

As for `C=CCN1CCC(Oc2ccc(N3C(=S)N(c4cnc(C#N)c(Cl)c4)C(=O)C34CCC4)cn2)CC1` [Cpd 89, 5-[8-[6-[(1-allyl-4-piperidyl)oxy]-3-pyridyl]-5-oxo-7-thioxo-6,8-diazaspiro[3.4]octan-6-yl]-3-chloro-pyridine-2-carbonitrile], the figures for the IC50 in assay [1] (antagonist mode) and in assay [3] (antagonist mode) were 67.6 nM and 55 nM, respectively. Also, the Emax in assay [1] (setting [5]) was found to be 101%; in assay [2] (setting [6]), 0.2%; in assay [3] (setting [5]), 98.4%; in assay [4] (setting [6]), 3.3%. In addition, the EC50 in assay [2] (agonist mode) and in assay [4] (agonist mode) was above 15100 nM throughout.
As to `N#Cc1ncc(N2C(=O)C3(CCC3)N(c3ccc4[nH]c(CCO)nc4c3)C2=S)cc1C(F)(F)F`, the Emax was determined as 0% in assay [1] (setting [7]), 0.4% in assay [2] (setting [8]), 100% in assay [3] (setting [7]) and 0.1% in assay [4] (setting [8]). The IC50 in assay [1] (antagonist mode) was 1740 nM; in assay [3] (antagonist mode) it was 832 nM. For the same compound, the EC50 in assay [2] (agonist mode) and in assay [4] (agonist mode) was above 15100 nM each time.
In the case of `COc1cc(N2C(=O)C3(CCC3)N(c3ccc(CC4CCNCC4)cc3)C2=S)cnc1C#N` [Cpd 236, 3-Methoxy-5-[8-oxo-5-(4-piperidin-4-ylmethyl-phenyl)-6-thioxo-5,7-diaza-spiro[3.4]oct-7-yl]-pyridine-2-carbonitrile], the Emax in assay [1] (setting [7]) was 103%; in assay [2] (setting [8]) it was 0.6%; in assay [3] (setting [7]), 101%; in assay [4] (setting [8]), 0.2%. The IC50 in assay [1] (antagonist mode) was 457 nM; in assay [3] (antagonist mode), 269 nM. Moreover, the EC50 in assay [2] (agonist mode) and in assay [4] (agonist mode) was above 15100 nM in each case.
In the case of `COCCn1ncc2cc(N3C(=S)N(c4cnc(C#N)c(C(F)(F)F)c4)C(=O)C34CCC4)ccc21` [Cpd 170, 5-[8-[1-(2-methoxyethyl)indazol-5-yl]-5-oxo-7-thioxo-6,8-diazaspiro[3.4]octan-6-yl]-3-(trifluoromethyl)pyridine-2-carbonitrile], the IC50 in assay [1] (antagonist mode) is 589 nM; in assay [3] (antagonist mode) it was 309 nM. For the same compound, the Emax came out at 101% in assay [1] (setting [5]), 0.2% in assay [2] (setting [6]), 102% in assay [3] (setting [5]) and 0.1% in assay [4] (setting [6]). The EC50 in assay [2] (agonist mode) and in assay [4] (agonist mode) was above 15100 nM each time.
`COc1cc(N2C(=O)C3(CCC3)N(c3ccc(CC4CCN(C)CC4)cc3)C2=S)cnc1C#N` [Cpd 239, 3-methoxy-5-[8-[4-[(1-methyl-4-piperidyl)methyl]phenyl]-5-oxo-7-thioxo-6,8-diazaspiro[3.4]octan-6-yl]pyridine-2-carbonitrile]: the Emax in assay [1] (setting [7]) was 103%; in assay [2] (setting [8]) it was -0.1%; in assay [3] (setting [7]), 102%; in assay [4] (setting [8]) it was 0.2%. The IC50 was 603 nM in assay [1] (antagonist mode) and 347 nM in assay [3] (antagonist mode). Further, the EC50 in assay [2] (agonist mode) and in assay [4] (agonist mode) was above 15100 nM in each case.
Take `CN1CCC12CC(Oc1ccc(N3C(=S)N(c4cnc(C#N)c(C(F)(F)F)c4)C(=O)C34CCC4)cc1)C2` (centres unmarked) [Cpd 166, 5-[8-[4-[(3-methyl-3-azaspiro[3.3]heptan-6-yl)oxy]phenyl]-5-oxo-7-thioxo-6,8-diazaspiro[3.4]octan-6-yl]-3-(trifluoromethyl)pyridine-2-carbonitrile]: the IC50 is 331 nM in assay [1] (antagonist mode) and 200 nM in assay [3] (antagonist mode). The Emax in assay [1] (setting [5]) came out at 102%; in assay [2] (setting [6]), 0.2%; in assay [3] (setting [5]), 101%; in assay [4] (setting [6]) it was 0.1%. For the same compound, the EC50 in assay [2] (agonist mode) and in assay [4] (agonist mode) was above 15100 nM each time.
As to `CN1CCC(Oc2ccc(N3C(=S)N(c4cnc(C#N)c(C(F)(F)F)c4)C(=O)C34CCC4)cc2)CC12CCC2` (racemic) [Cpd 178, (R,S)-5-[8-[4-[(9-methyl-9-azaspiro[3.5]nonan-6-yl)oxy]phenyl]-5-oxo-7-thioxo-6,8-diazaspiro[3.4]octan-6-yl]-3-(trifluoromethyl)pyridine-2-carbonitrile], the IC50 in assay [1] (antagonist mode) is 174 nM; in assay [3] (antagonist mode), 234 nM. Moreover, the Emax in assay [1] (setting [5]) turned out to be 104%; in assay [2] (setting [6]) it was 0.3%; in assay [3] (setting [5]) it was 102%; in assay [4] (setting [6]) it was 0%. For the same compound, the EC50 in assay [2] (agonist mode) and in assay [4] (agonist mode) was above 15100 nM each time.
